# In patent US12428455B2, “Dominant negative CEBPB and CEBPD proteins and methods of use for decreasing viability of neoplastic cells” (The Trustees of Columbia University in the City of New York, priority 2018, dated 2025):
# No end group written: not given here.
# Tests used:
# BMF transcripts = test: qPCR for BMF transcripts; format: cell-based; settings: 20 μM, 3 days; T98G, MDA-MB-231, MCF7, A375 and HCT116 cells
# Protocol: T98G, MDA-MB-231, MCF7, A375, and HCT116 cells were treated with or without 20 μM CP-dn-CEBPB or CP-dn-CEBPD for 3 days and then assessed by qPCR for relative levels of BMF transcripts (FIG. 35A, T98G; FIG. 35B, MDA-MB-231; FIG. 35C, MCF7; FIG. 35D, A375; FIG. 35E, HCT116).
# normal human astrocytes = test: Survival after peptide treatment, astrocytes; format: cell-based; settings: 6 days, 0 μM to 50 μM; stock without BSA
# Protocol: Replicate cultures of HIEC-6 non-cancer human intestinal epithelial cells, MCF10A non-cancer human breast epithelial cells, or normal human astrocytes were exposed to CP-DN-CEBPB or CP-DN-CEBPD, for 6 days at doses of 0 μM to 50 μM. […] Stock solutions of the peptides were prepared in buffer without added bovine serum albumin (BSA).
# T98G cells = test: Colony forming activity on culture plates, T98G; format: cell-based; settings: 6 days; doses 0.05, 0.5 and 5 μM
# Protocol: T98G (FIG. 21A), MDA-MB 231 (FIG. 21B), and HCT116 (FIG. 21C) cells were exposed to CP-DN-CEBPB and CP-DN-CEBPD for 6 days at doses of 0.05 μM 0.5 μM, and 5 μM while growing in soft agar. Growth was inhibited by does as low as 0.5 μM. T98G (FIG. 21D), MDA-MB 231 (FIG. 21E), and HCT116 (FIG. 21F) cells were exposed to CP-DN-CEBPB and CP-DN-CEBPD for 6 days at doses of 0.05 μM 0.5 μM, and 5 μM while growing on culture plates. Growth was inhibited by does as low as 0.5 μM.
# [1] = system: HIEC-6 non-cancer human intestinal epithelial cells; test: Morphology after peptide treatment, HIEC-6; format: cell-based; settings: 5 to 6 days, 20 μM or 50; stock without BSA
# Protocol: Stock solutions of the peptides were prepared in buffer without added bovine serum albumin (BSA).
# A375 cells [2] = test: A375 subcutaneous tumors, 10 or 20 mg/kg study; format: in vivo, NCR nude mice; settings: 10 or 20 mg/kg intraperitoneally; for tumor growth (calculated tumor volumes): to day 24
# Protocol: A375 cells were subcutaneously implanted in the flanks of NCR nude mice. After tumors had formed, the animals were treated intraperitoneally with 10 or 20 mg/kg of CP-dn-CEBPB, CP-dn-CEBPD or vehicle as indicated in the schema shown in FIG. 37A. Animal weight was monitored (FIG. 37B). Tumor sizes were measured and volumes calculated on each day of injection. […] FIG. 37D compares calculated individual and mean tumor volumes for vehicle, CP-dn-CEBPB and CP-dn-CEBPD treated animals on day 24.
# [3] = Solubility of peptide stock after dilution; format: physicochemical; settings: 20 mM of each of arginine and glutamate added to peptide stock buffer
# Protocol: In some implementations, the mixture of arg/glu may be added at a molarity of, or of about 5 mM, 10 mM, 15 mM, 20 mM, 25 mM, or 30 mM.
# BMF = test: Apoptotic nuclei after BMF knockdown siRNA and CP-dn-CEBPD; format: cell-based; settings: siRNA 2 days, then 20 μM peptide 2 days; T98G, MCF7, A375 and HCT116 cells
# Protocol: T98G, MCF7, A375, and HCT116 cells were treated with one of two BMF knockdown siRNAs or control siRNA for 2 days, then treated with or without 20 μM CP-dn-CEBPD for 2 days. Cultures were assessed for % of apoptotic nuclei (n=6 random fields) (FIG. 36A, T98G; FIG. 36B, MCF7; FIG. 38C, A375; FIG. 36D, HCT116).
# B16-F10 cells = test: B16-F10 subcutaneous tumors; format: in vivo, C56BL/6 mice; settings: 20 or 50 mg/kg intraperitoneally
# Protocol: B16-F10 cells were subcutaneously implanted in the flanks of C56BL/6 mice. After the tumors were established, the mice were treated intraperitoneally with 20 or 50 mg/kg of CP-dn-CEBPD or vehicle as indicated in the schema shown in FIG. 38A. Animal weight was monitored (FIG. 38B). […] FIG. 38D compares calculated individual and mean tumor volumes for each group of animals on day 12.
# A375 cells [4] = test: A375 subcutaneous tumors, 20 mg/kg survival study; format: in vivo, NCR nude mice; settings: 20 mg/kg intraperitoneally
# Protocol: A375 cells were subcutaneously implanted in the flanks of NCR nude mice. Once tumors had formed, the animals were treated intraperitoneally with 20 mg/kg of CP-dn-CEBPD or vehicle as indicated in the schema shown in FIG. 39A. Animal weight was monitored (FIG. 39B). Tumor sizes were measured and volumes calculated on each day of injection. […] FIG. 39D compares calculated individual and mean tumor volumes for vehicle and CP-dn-CEBPD treated animals on day 28.
# HCT116 cells = test: HCT116 subcutaneous tumors; format: in vivo, NCR nude mice; settings: 20 mg/kg intraperitoneally
# Protocol: HCT116 cells were subcutaneously implanted in the flanks of NCR nude mice. After tumors formed, the animals were treated intraperitoneally with 20 mg/kg of CP-dn-CEBPD or vehicle as indicated in the schema shown FIG. 40A. Animal weight was monitored (FIG. 40). […] FIG. 40D compares calculated individual and mean tumor volumes for vehicle and CP-dn-CEBPD treated animals on day 11.
# A375 xenograft tumors = test: TUNEL staining of A375 xenograft tumors; format: in vivo, mice; settings: 20 mg/kg, retreated 2 days later, tumors harvested after additional 2 days
# Protocol: Subcutaneous A375 xenograft tumors were established in mice. When the tumors reached approximately 300 mm^3, randomly chosen animals were treated with vehicle or 20 mg/kg of CP-dn-CEBPD. The animals were retreated 2 days later and, after an additional 2 days, the animals were sacrificed, and the tumors harvested for histology and TUNEL staining to detect apoptosis. Results are presented in FIG. 42A (vehicle) and FIG. 42B (CP-dn-CEBPD).
# [5] = endpoint morbid behavior or tumor >1000 mm^3
Sequence,relative levels of BMF transcripts (BMF transcripts),survival of astrocytes (normal human astrocytes),"lowest dose at which growth was inhibited, culture plates (T98G cells) [µM]",morphology of HIEC-6 cells [1],side effects (animal weight monitored) (A375 cells [2]),tumor growth (calculated tumor volumes) (A375 cells [2]),solubility after dilution to the concentration applied to cultured LN229 cells [3],% of apoptotic nuclei with BMF knockdown siRNAs or control siRNA (BMF),side effects (animal weight monitored) (B16-F10 cells),tumor growth (calculated tumor volumes) (B16-F10 cells; to day 12-13),side effects (animal weight monitored) (A375 cells [4]),animal survival (A375 cells [4]; [5]),tumor growth (calculated tumor volumes) (A375 cells [4]; to day 28),side effects (animal weight monitored) (HCT116 cells),animal survival (HCT116 cells; [5]),tumor growth (calculated tumor volumes) (HCT116 cells; to day 11),apoptosis of tumor cells (TUNEL staining) (A375 xenograft tumors)
RQIKIWFQNRRMKWKKLETQHKVLELTAENERLQKKVEQLSRELSTLRNLFKQL [CP-DN-CEBPB],upregulate pro-apoptotic BMF,neither CP-DN-CEBPB or CP-DN-CEBPD affected survival of astrocyte,0.5,did not affect the morphology,no apparent side effects,suppressed tumor growth,maintained solubility,,,,,,,,,,
RQIKIWFQNRRMKWKKLVELSAENEKLHQRVEQLTRDLAGLRQFFK [CP-DN-CEBPD],upregulate pro-apoptotic BMF,neither CP-DN-CEBPB or CP-DN-CEBPD affected survival of astrocyte,0.5,did not affect the morphology,no apparent side effects,suppressed tumor growth,maintained solubility,kills cancer cells by upregulating pro-apoptotic BMF,no apparent side effects,suppressed tumor growth,no apparent side effects,increased animal survival,suppressed tumor growth,no apparent side effects,increased animal survival,suppressed tumor growth,causes apoptosis of tumor cells in vivo
